Source: US5168102A, “Endocrine manipulation to improve body composition of poultry” (priority 1990, dated 1992)
Where “and” joins values, the source holds several entries; their conditions need not be identical. Identical values can stand only once. Entries after “also recorded” stand apart in the source; their conditions may differ.

Experiments:
[1] = Example 3: muscle protein turnover (14C-L-tyrosine infusion); assay type: in vivo, broiler cockerels
Method: At week no. 7 (49 days-of-age), one-half of the birds (8 birds/treatment) were killed for measurement of the abdominal fat pad and liver weights. The muscles were removed, weighed, frozen in liquid N2 and stored at -20° C. until analyzed. At 51 days-of-age, groups of 4 birds per treatment were given a subcutaneous infusion of 4 μCi/Kg of 14C-L-tyrosine emulsified in sesame seed oil and immediately placed in metabolism cages. The expired CO2 was trapped in 15 ml of scrubbing solution (1:2 ethanolamine/methyl cellusolve) and the tubes were changed every 15 minutes for 90 minutes. At 90 minutes, the birds were removed from the metabolism cages and blood was obtained via cardiac puncture. Birds were then sacrificed by cervical dislocation and the muscles were removed, weighed, frozen in liquid N2 and stored at -20° C. until analyzed. Radioactivity in the samples containing trapped CO2 was counted for 10 minutes using a liquid scintillation spectrophotometer. At 54 days-of-age, groups of 4 birds per treatment were killed, the muscles were dissected, weighed, and frozen until analyzed.
The right breast muscle, i.e. BM (Pectoralis major) and right leg muscles, i.e. LM (gastrocnemius and peroneus longus) were dissected out from the birds, weighed and immediately frozen in liquid nitrogen and stored at -20° C. until analyzed for tyrosine content as specific radioactivity of tyrosine. All muscle tissues were analyzed for protein content; only tissues from isotope experiments were analyzed for tyrosine content as specific radioactivity of tyrosine.
FAR of breast muscle and leg muscles were estimated from regression of total muscle protein on age. Total muscle protein was determined by multiplying the muscle weight by protein content. Protein content was determined by the Biuret method. The slope obtained by linear regression was the absolute rate of protein accretion (g/d). The FAR (%/d) was calculated by dividing the absolute accretion rate by the average muscle protein at 51 days-of-age. The FSR (ks) was calculated according to the equation described by Garlick et al., Biochem. J. 136:935 (1973). Protein-bound tyrosine in muscle tissue was separated from free tyrosine according to the procedures of Laurent et al. Biochem. J. 176:419 (1978) with some modification. Approximately 1 g of muscle tissue was homogenized with 5 ml cold distilled water and washed with 15 ml of cold 5% trichloroacetic acid (TCA). The homogenate was then centrifuged for 15 min at 4000×g. The supernatant containing the free tyrosine was poured off and the TCA was extracted with 15 ml of diethyl ether. The supernatant was concentrated to dryness. The dried sample was dissolved in 5 ml of distilled water and stored at 4° C. until analyzed for tyrosine content and the specific radioactivity of tyrosine.
The pellet was extracted with 15 ml of hot 5% TCA, 15 ml of 3:1 ethanol/diethyl ether (v/v) and 20 ml of diethyl ether. The washed pellet was then placed in a 25×150 mm test tube with screw cap and hydrolyzed in 15 ml of 6N hydrochloric acid (HCl) for 16 hours at 125° C. The hydrolysate was concentrated to dryness. The dried sample was dissolved in 5 ml of distilled water and stored at 4° C. until analyzed for tyrosine content and specific radioactivity of tyrosine.
Tyrosine content in free tyrosine (supernatant) and the protein-bound fraction (hydrolysate) was analyzed according to the method of Udenfriend et al, J. Biol. Sci. 196:227 (1952).
The specific radioactivity of tyrosine in the protein-bound fraction (hydrolysate) and in the free tyrosine (supernatant) was analyzed using the method described by Schaefer et al, Can. J. Anim. Sci. 62:1223 (1982). One ml of the samples were added into 10 ml of aquasol and counted for 10 minutes in a liquid scintillation spectrophotometer.

[2] = Example 2: final body weight, liver, abdominal fat and body composition; assay type: in vivo, broiler cockerels (Ross X Arbor Acre)
Method: (§1) Forty-eight 3-week-old broiler cockerels (Ross X Arbor Acre) were randomly divided into four treatment groups that contained three pens of four birds. The birds were housed in a controlled-environment room under a 20 hour light/4 hour dark cycle with feed and water provided ad libitum.
(§2) The preparation of ncGH used in this study was from the same lot used in Example 1.
(§3) Body weights and feed consumption was determined at weekly intervals although the ADG, ADFC and FTG ratio was determined over the 21 day period. […] At the conclusion of the study (6 weeks-of-age), birds were killed and the abdominal fat removed and weighed. The liver and abdominal fat were returned to the carcass which was frozen for proximate analysis as described in […]

[3] = exogenous; cited from earlier work
[4] = Example 2: plasma hormone concentrations; assay type: in vivo, broiler cockerels (Ross X Arbor Acre); conditions: vs CF+BI or CF+GH treatment
Method: as §1, §2, §3

[5] = Example 3: plasma hormone levels (RIA); assay type: in vivo, broiler cockerels
Method: Day-old broiler cockerels were randomly assigned to 24 pens (5 birds/pen) in a battery brooder. The total duration of the bird management period lasted from 7 to 8 weeks. […] 3, four birds from each pen were transferred to wire grow-out cages. […] Body weight and feed consumption were determined at weekly intervals. A 5 ml blood sample was obtained from each bird at week no. 7 and stored at -20° C. until assayed for plasma hormones.
Equilibrium, double antibodies radioimmunoassays (RIA) were used to determine plasma levels of chicken growth hormone (GH) according to Proudman, Proc. Soc. […] Plasma insulin was quantified by using nonequilibrium RIA described by McMurtry et al., Poult. […] Plasma level of insulin-like growth factor-I (IGF-I) was determined by heterologous RIA in accordance with McGuinness.

N[C@@H](Cc1cc(I)c(Oc2ccc(O)c(I)c2)c(I)c1)C(=O)O [T3, 3,3',5-triiodo-L-thyronine]
overall protein turnover rate of breast muscle ([1]; 0.25 ppm): did not differ from that of control birds
protein accretion in breast and leg muscle, increase ([1]; 0.25 ppm): 45-88%
FAR, Leg muscles ([1]; 0.25 ppm of feed): 9.3 %/d
FAR, Pectoralis major (breast muscle) ([1]; 0.25 ppm of feed): 4.9 %/d
FRD (fractional degradation rate), Leg muscles ([1]; 0.25 ppm of feed): 13.6 %/d
FRD (fractional degradation rate), Pectoralis major ([1]; 0.25 ppm of feed): 12.3 %/d
FSR, Leg muscles ([1]; 0.25 ppm of feed): 22.0 ± 2.1 %/d
FSR, Pectoralis major ([1]; 0.25 ppm of feed): 17.2 ± 1.3 %/d
FAR of leg muscle, increase ([1]; 0.25 ppm, vs control group): 45%
FAR of pectoralis major (breast muscle), increase ([1]; 0.25 ppm, vs control group): 88%
effect on protein synthesis rate in breast muscle ([1]; 0.25 to 1 ppm): only a slight effect upon protein synthesis rate in breast muscle
FAR, Leg muscles ([1]; 1.0 ppm of feed): -2.0 %/d
FAR, Pectoralis major (breast muscle) ([1]; 1.0 ppm of feed): -4.5 %/d
FRD (fractional degradation rate), Leg muscles ([1]; 1.0 ppm of feed): 24.1 %/d
FRD (fractional degradation rate), Pectoralis major ([1]; 1.0 ppm of feed): 22.7 %/d
FSR, Leg muscles ([1]; 1.0 ppm of feed): 22.1 ± 1.9 %/d
FSR, Pectoralis major ([1]; 1.0 ppm of feed): 18.2 ± 1.7 %/d
fractional degradation rate of breast muscle, increase ([1]; 4 ppm): 116%
FSR of protein in breast muscle, increase ([1]; 4.0 ppm (p<0.05)): 55.7% and 56%
FAR, Leg muscles ([1]; 4.0 ppm of feed): 5.0 %/d
FAR, Pectoralis major (breast muscle) ([1]; 4.0 ppm of feed): -3.8 %/d
FRD (fractional degradation rate), Leg muscles ([1]; 4.0 ppm of feed): 18.4 %/d
FRD (fractional degradation rate), Pectoralis major ([1]; 4.0 ppm of feed): 28.1 %/d
FSR, Leg muscles ([1]; 4.0 ppm of feed): 23.4 ± 0.8 %/d
FSR, Pectoralis major ([1]; 4.0 ppm of feed): 24.3 ± 1.4 %/d
accretion of certain muscle protein (particularly breast muscle) ([1]; plasma thyroid hormone bioactivity 360-1200% of normal): decreased
body fat content (% BW), reduction ([2]; 1 ppm T3, with or without ncGH): 16%
abdominal fat content, reduction ([2]; 1 ppm T3, with or without ncGH (P<0.05)): 28%
Body Weight (BW), final ([2]; 1 ppm T3 and/or ncGH 100 μg/kg/day, 6 weeks-of-age, N = 12): 1.86 ± .048 kg
Abdominal Fat, relative weight ([2]; N = 12): 1.86 ± .396 % BW
Body composition: Ash ([2]; N = 12): 2.40 ± .054 % BW
Body composition: Fat ([2]; N = 12): 13.2 ± .62 % BW
Body composition: Protein ([2]; N = 12): 17.3 ± .36 % BW
Body composition: Water ([2]; N = 12): 65.5 ± .60 % BW
Liver, relative weight ([2]; N = 12): 2.54 ± .096 % BW
effect on body water and ash contents ([2]; in vivo): increased
growth deficit of hypophysectomized chickens [3]: correct the growth deficit
average plasma T3 level, fold higher [4]: 2.3 times
glucagon secretion, increase ([5]; 0.25 ppm): 16%
plasma T3 level, fold elevation ([5]; 0.25 ppm): 2.1 fold
plasma insulin, reduction ([5]; 0.25 ppm): 27%
I/G ratio, reduction ([5]; 0.25 ppm (p<0.05)): 31%
I/G Ratio (molar) ([5]; 0.25 ppm of feed): 0.81 ± .20
plasma GH ([5]; 0.25 ppm of feed): 2.0 ± 0.4 ng/mL
plasma Glucagon ([5]; 0.25 ppm of feed): 656 ± 75 pg/mL
plasma IGF-I ([5]; 0.25 ppm of feed): 100.7 ± 2.9 ng eg/ml
plasma Insulin ([5]; 0.25 ppm of feed): 772 ± 155 pg/mL
plasma T4 ([5]; 0.25 ppm of feed): 6.3 ± 0.6 ng/mL
effect on plasma IGF-1 level ([5]; 0.25 to 4.0 ppm): only reduced (p<0.05) by the 4.0 ppm level
I/G molar ratio, reduction ([5]; 1 or 4 ppm (p<0.05)): 70-76%
glucagon secretion, increase ([5]; 1.0 ppm (p<0.05)): 44%
plasma insulin, reduction ([5]; 1.0 ppm (p<0.05)): 60%
I/G Ratio (molar) ([5]; 1.0 ppm of feed): 0.35 ± .06
plasma GH ([5]; 1.0 ppm of feed): 2.1 ± 0.4 ng/mL
plasma Glucagon ([5]; 1.0 ppm of feed): 816 ± 64 pg/mL
plasma IGF-I ([5]; 1.0 ppm of feed): 97.7 ± 6.3 ng eg/ml
plasma Insulin ([5]; 1.0 ppm of feed): 426 ± 65 pg/mL
plasma T4 ([5]; 1.0 ppm of feed): 6.2 ± 0.6 ng/mL
plasma T3 level, fold elevation ([5]; 4 ppm): 12.6 fold
glucagon secretion, increase ([5]; 4.0 ppm (p<0.05)): 46%
plasma insulin, reduction ([5]; 4.0 ppm (p<0.05)): 68%
Plasma T3 level (control group = 100% of normal) ([5]; 4 ppm in feed): ~ 1254%
I/G Ratio (molar) ([5]; 4.0 ppm of feed): 0.28 ± .08
plasma GH ([5]; 4.0 ppm of feed): 1.8 ± 0.2 ng/mL
plasma Glucagon ([5]; 4.0 ppm of feed): 824 ± 61 pg/mL
plasma IGF-I ([5]; 4.0 ppm of feed): 58.8 ± 8.2 ng eg/ml
plasma Insulin ([5]; 4.0 ppm of feed): 344 ± 92 pg/mL
plasma T4 ([5]; 4.0 ppm of feed): 5.1 ± 0.8 ng/mL
effect on plasma GH levels ([5]; all dietary T3 levels): decreased (p<0.05); also recorded: decrease plasma GH levels
plasma T4 level, decrease ([5]; regardless of dose level (p<0.05)): 67%
